Measurements taken from paper PMC4687057, “The function of phosphatidylinositol 5-phosphate 4-kinase γ (PI5P4Kγ) explored using a specific inhibitor that targets the PI5P-binding site” (Biochemical Journal, 2015).

Legend:
[1] = biological target: T1, PI5P4Kγ+ (E378H,I159V,D161V) mutant (Homo sapiens, UniProt Q8TBX8, D161V/E153T/I159V/Q378H); assay: […] lipid kinase assay, % inhibition at […]; format: biochemical
T1 construct: gene PIP4K2C
T1 sequence (Q8TBX8 2-421 E153T/I159V/D161V/Q378H): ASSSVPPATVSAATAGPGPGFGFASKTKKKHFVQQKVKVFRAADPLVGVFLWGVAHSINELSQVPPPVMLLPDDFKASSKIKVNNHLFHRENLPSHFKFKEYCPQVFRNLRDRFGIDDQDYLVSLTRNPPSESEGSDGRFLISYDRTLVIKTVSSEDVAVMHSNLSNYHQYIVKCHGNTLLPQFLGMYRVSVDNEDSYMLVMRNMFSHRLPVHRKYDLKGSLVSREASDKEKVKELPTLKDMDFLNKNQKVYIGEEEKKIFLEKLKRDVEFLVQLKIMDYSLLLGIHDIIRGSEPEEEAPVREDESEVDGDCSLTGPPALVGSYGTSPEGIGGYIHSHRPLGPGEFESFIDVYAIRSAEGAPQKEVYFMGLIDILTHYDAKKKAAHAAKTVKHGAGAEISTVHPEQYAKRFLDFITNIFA

[2] = biological target: T2, phosphatidylinositol 5-phosphate 4-kinase γ (PI5P4Kγ) (Homo sapiens, UniProt Q8TBX8); assay: HDX-MS with purified protein; IC50 from […]P lipid kinase assay on recombinant enzyme; format: biochemical
T2 construct: gene PIP4K2C; PI5P4Kγ from GST fusion (pGEX6P), GST cleaved with PreScission protease
T2 sequence (Q8TBX8 2-421): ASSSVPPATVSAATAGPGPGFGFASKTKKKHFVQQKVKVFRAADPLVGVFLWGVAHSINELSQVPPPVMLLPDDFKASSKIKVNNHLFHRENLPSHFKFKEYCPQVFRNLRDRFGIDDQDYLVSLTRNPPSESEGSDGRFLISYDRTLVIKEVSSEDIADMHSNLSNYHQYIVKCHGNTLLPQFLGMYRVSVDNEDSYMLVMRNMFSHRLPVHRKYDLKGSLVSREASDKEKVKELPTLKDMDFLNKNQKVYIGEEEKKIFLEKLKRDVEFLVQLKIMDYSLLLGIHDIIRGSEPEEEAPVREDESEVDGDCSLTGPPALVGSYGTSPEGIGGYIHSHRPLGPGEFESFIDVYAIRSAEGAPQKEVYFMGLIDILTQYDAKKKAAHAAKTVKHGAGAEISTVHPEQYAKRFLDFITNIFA

FC(F)(F)c1ccccc1-c1nc(NCc2cccs2)c2ccccc2n1 [compound 1, NIH-12848]
inhibition at 10 µM [1]: 71%
IC50 [2]: 3.3 µM
